In patent publication US8337835B2, “Use of an endogenous ligand for peroxisome proliferator activated receptor alpha to treat liver disorders” (priority 2009, dated 2012):

Columns and labels:
hepatic steatosis = assay: Portal vein infusion, liver fat / triglyceride content in zero fat diet and fasting fatty liver model; type: in vivo, mouse
[1] = tested on: PPARα target gene (ACO and CPT-1) expression; assay: PPARα target gene (ACO and CPT-1) expression by quantitative RT-PCR in Hepa 1-6 cells; type: cell-based; details: Hepa 1-6 mouse hepatoma cells, 24 h, serum-free DMEM
Protocol: RT-PCR gene expression analysis and binding assays were employed to address this objective. Wy14,643, 16:0/18:1-GPC, and 18:1/16:0-GPC on PPARα target gene (ACO and CPT-1) expression was measured by quantitative RT-PCR in Hepa 1-6 cells treated for 24 h as in FIG. 6A. Results are mean±SEM of 9 separate experiments. *, P<0.05 compared to control (Ctrl, 80% PBS/20% DMSO).
The C57BL/6 mouse hepatoma cell line Hepa 1-6 (ATCC, CRL-1830) was expanded in DMEM with 10% fetal bovine serum. For experiments, cells were cultured to 50-60% confluence, washed twice with PBS, and the medium was changed to serum-free DMEM supplemented with the various types and concentrations of phosphatidylcholine (sonicated to homogeneity in PBS/1% ethanol/4% fatty acid-free BSA), Wy14,643 (dissolved in 80% PBS/20% DMSO), or vehicle-only solutions. 24 h later, cells were washed, RNA prepared, and ACO and CPT-1 expression levels were determined by quantitative RT-PCR (see FIG. 6). For siRNA experiments, 50-60% confluent cells were treated with siRNAs or their scrambled controls (all diluted in PBS) for 72 h. Following the 72 h siRNA treatment, another set of cells received 16:0/18:1-GPC (using a concentration based on dose-response experiments) for an additional 24 h. Stealth™ siRNA oligonucleotides were used to inhibit the gene expression of mouse ChPT1 ([…]) (SEQ ID NO: 1) and CEPT1 ([…]) (SEQ ID NO: 2) were from Invitrogen (Carlsbad, Calif.).
Total RNA was extracted from Hepa 1-6 cells and liver using Trizol (Invitrogen) and treated with DNase I (RNase-free, Roche Molecular Biochemicals). Reverse transcription to cDNA and real-time quantitative PCR were performed using previously published procedures and primer-probe sequences for ACO and CPT-1 (Chakravarthy et al., 2005). […] Relative mRNA levels were calculated using both the comparative CT and standard curve methods normalized to ribosomal protein L32, an invariant internal control. […]

[2] = biological target: T1, PPARα ligand binding domain (LBD) (Homo sapiens, UniProt Q07869); assay: ALPHASCREEN binding assay, PPARα ligand binding domain
T1 construct: 6xHis; made in house
T1 sequence (Q07869 239-466 limits assumed): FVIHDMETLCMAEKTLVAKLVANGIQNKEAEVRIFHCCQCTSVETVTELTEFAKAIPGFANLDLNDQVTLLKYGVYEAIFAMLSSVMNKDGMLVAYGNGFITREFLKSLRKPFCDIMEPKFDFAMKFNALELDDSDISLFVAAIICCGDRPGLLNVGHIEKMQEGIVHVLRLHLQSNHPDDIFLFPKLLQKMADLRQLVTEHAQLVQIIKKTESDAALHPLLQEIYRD
Protocol: Binding of 16:0/18:1-GPC and known agonists to the ligand binding domain (LBD) of PPARα in the presence of various peptide motifs was determined by ALPHASCREEN™ assay (Proc Natl Acad Sci USA 105, pp. 5034-5039, 2008). Experiments used 100 nM receptor LBD, purified as 6× His tag fusion proteins (Mol Cell 17, pp. 491-502, 2005), and 20 nM of N-terminal biotinylated CBP1 peptide or other coactivator peptides in the presence of 5 μg/ml donor and acceptor beads in 50 mM MOPS (pH 7.4), 100 mM NaCl, and 0.1 mg/ml BSA for 90 min at 25° C. Signals were generated in the absence or the presence of ligand. Identical experiments were performed using the PPARδ and PPARγ LBDs.
Stealth™ siRNA oligonucleotides were used to inhibit the gene expression of mouse ChPT1 ([…]) (SEQ ID NO: 1) and CEPT1 ([…]) (SEQ ID NO: 2) were from Invitrogen (Carlsbad, Calif.). […] Expression of ACO and CPT-1 was also assessed 24 h after addition of 50 μM 16:0/18:1-GPC in a subset of Hepa 1-6 cells previously treated with CEPT1 siRNA. mRNA levels are normalized to control L32 ribosomal mRNA. […] FIGS. 6F-H show the binding of various peptide motifs to the purified PPARα (FIG. 6F), PPARδ (FIG. 6G), and PPARγ (FIG. 6H) LBD in the presence of 5 μM of the corresponding PPAR agonist or 16:0/18:1-GPC as measured by AlphaScreen assays. […]

## CCCCCCCC/C=C\CCCCCCCC(=O)O[C@H](COC(=O)CCCCCCCCCCCCCCC)COP(=O)([O-])OCC[N+](C)(C)C [16:0/18:1-GPC, 1-palmitoyl-2-oleoyl-sn-glycerol-3-phosphocholine]
Hepatic steatosis; PPARα-deficient mice, 10 mg/kg intraportal three times a day, 5 days ZFD, 24 h fast
  liver lipid content: unaffected
Hepatic steatosis; control (C57/BL6) mice, 10 mg/kg intraportal three times a day, 5 days ZFD, 24 h fast, vs vehicle
  liver fat content: decreased
Hepatic steatosis; intraperitoneal route, preliminary results (data not shown)
  effect of intraperitoneal administration: no effect
[1]
  expression of PPARα-dependent genes ACO and CPT-I: induces PPARα-dependent gene expression
[1]; listed as 1-palmitoyl-2-oleoyl-sn-glycerol-3-phosphocholine
  expression of PPARα-dependent genes ACO and CPT-I: increased expression of both ACO and CPT-I to a similar degree as equimolar amounts of the known PPARα activator Wy14,643
[2]
  binding affinity to PPARα compared with Wy14,643: binds with sufficient affinity to PPARα comparable to Wy14,643
